Experiments:
[1] = previous studies; cited from earlier work
Description: (§1) The subject of this study was oligopeptides with the following sequences: Lys-Dab-Dab-Gly-Orn-Pro-His-Lys-Arg-Lys-Dbt, Lys-Dab-Ala-Gly-Orn-Pro-His-Lys-Arg, and Lys-Dab-Dab-Gly-Orn-Pro-Phe(2-F)-Lys-Arg, which are referred to as L1, L2, and L3, respectively, in the remainder of this work. The investigated oligopeptides consist of an amino group (NH2) in the side chain of unique unnatural amino acids such as Dab (2,4-diaminobutyric acid) and Orn (2,5-diaminopentanoic acid) and standard amino acids such as Lys, and N-terminus and in Dbt in the C-terminal region. Additionally, the presence of the g ...

[2] = tested on: oxygen-free radical species (ROS); details: previous studies; cited from earlier work
Description: as §1

[3] = target: bovine serum albumin (BSA) (Bos taurus, UniProt P02769); assay: Fluorescence quenching of BSA by peptides L1–3; details: for Stern–Volmer constant Ksv / logKb: BSA 1.0 µM, phosphate buffer; for Stern–Volmer constant Ksv: peptide 0.25–2.0 µM, λex 280 nm; for logKb: double log regression; for quenching rate constant kq: from Ksv with τ0 10^−8 s assumed
Experimental: Fluorescence spectroscopy was carried out to characterize the mechanism of the interaction between three plasma proteins, BSA, AAG, and GGF, with the studied peptides. The fluorescence spectra of protein were collected during titration of L1–L3. The excitation wavelength was set at λ = 280 nm (both Trp and Tyr residues were excited).
To confirm this, the fluorescence data were further analyzed by the Stern–Volmer Equation (1) after correction due to the infer filter effect (2):(1) F0/F=1+kqτ[Q]=1+KSV (2) Fcorr=Fobs10^(Aex+Aem)/2 where F0 and F are the fluorescence intensities (after correction) of the protein and protein in the presence of L1–3, respectively, kq is the quenching rate constant, τ0 the average lifetime, [Q] is the L1–3 concentration, Ksv is the Stern–Volmer constant, and Fcorr, and Fobs are the corrected and observed fluorescence intensities, respectively. Aex and Aem are the absorbance values at excitation and emission wavelengths, respectively. A linear regression fit was used to calculate the value of the Stern–Volmer constant (Ksv). Then, assuming the average lifetime of the fluorophore in the excited state for a biomolecule as 10^−8 s, the quenching rate constant (kq) was computed. For dynamic quenching, the maximum scatters collision quenching rate constant for different quenchers with the biopolymers was reported to be 2 × 10^10 dm^3mol^−1s^−1 [55, 56]. […] Collisional quenching occurs when the excited-state fluorophore is deactivated by contact with some other molecule in solution (by collisions). […] This is a dynamic mechanism of quenching. The quenching constant characterizes the quenching mechanism. The maximum value for collisional quenching is 2 × 10^10 dm^3mol^−1s^−1. […] For further confirmation, measurements were made at, in addition to 297 K, temperatures 303 and 308 K. Experimental data points were fitted and analyzed using Equation (1).
Both for the complexes with BSA and with GGF, the binding constant (Kb) and the binding stoichiometry (n) were calculated. […] The values of Kb and n were calculated from the slope and the intercept of the log [(F0 − F)/F] versus log [Q] plot (Figure 2).
The forces involved in the interaction can be identified by measurement at different temperatures and then by thermodynamic analysis. The signs of the thermodynamic parameters identify the type of interactions. The enthalpy change (ΔH°), the entropic change (ΔS°), and the free energy change (ΔG°) were calculated from Equations (4) and (5):(4) […]=−ΔH^°/RT+ΔS^°/R (5) ΔG^°=ΔH^°−TΔS^°=−RTlnKb where Kb is the binding constant and R is the universal gas constant. To determine the thermodynamic parameters, the van’t Hoff plot was first conducted, i.e., the temperature dependence of the binding constant, according to Equation (4). The Kb values at the three temperatures were fitted by the linear regression method. The values of ΔH and ΔS were calculated from the slope and intercept at the fitted line. Next, the free energy change (ΔG°) was obtained from Equation (5).

[4] = BSA, van't Hoff plot of Kb at 297, 303, 308 K

bovine serum albumin (BSA), sequence (P02769 25-607): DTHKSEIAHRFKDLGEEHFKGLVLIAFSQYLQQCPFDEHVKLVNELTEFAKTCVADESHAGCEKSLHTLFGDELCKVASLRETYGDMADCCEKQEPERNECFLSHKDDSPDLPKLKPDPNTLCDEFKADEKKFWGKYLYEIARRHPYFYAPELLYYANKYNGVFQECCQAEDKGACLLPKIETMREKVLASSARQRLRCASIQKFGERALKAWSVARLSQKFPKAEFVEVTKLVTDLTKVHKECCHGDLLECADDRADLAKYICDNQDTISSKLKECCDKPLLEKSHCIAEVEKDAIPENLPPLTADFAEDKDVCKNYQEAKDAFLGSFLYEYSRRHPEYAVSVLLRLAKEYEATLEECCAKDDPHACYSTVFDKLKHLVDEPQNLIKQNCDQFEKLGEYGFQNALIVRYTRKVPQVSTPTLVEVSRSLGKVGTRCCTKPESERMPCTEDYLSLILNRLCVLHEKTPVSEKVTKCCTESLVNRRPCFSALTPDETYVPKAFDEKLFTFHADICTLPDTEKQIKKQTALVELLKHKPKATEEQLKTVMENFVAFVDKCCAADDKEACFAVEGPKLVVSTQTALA

Lys-Dab-Dab-Gly-Orn-Pro-His-Lys-Arg-Lys-Dbt [L1]
anti-inflammatory activity [1]: possess anti-inflammatory activity
effect on level of oxygen-free radical species (ROS) [2]: reduce the level of oxygen-free radical species (ROS)
number of binding sites n ([3]; 297 K, BSA): 0.80 ± 0.02
Stern–Volmer constant Ksv ([3]; 297 K, inner-filter corrected): 1.55 ± 0.07 × 10^5 dm^3mol^−1
logKb ([3]; 297 K): 4.07 ± 0.07
quenching rate constant kq ([3]; 297 K): 1.55 ± 0.07 × 10^13 dm^3mol^−1s^−1
number of binding sites n ([3]; 303 K, BSA): 0.80 ± 0.04
Stern–Volmer constant Ksv ([3]; 303 K): 1.21 ± 0.03 × 10^5 dm^3mol^−1
logKb ([3]; 303 K): 3.95 ± 0.09
quenching rate constant kq ([3]; 303 K): 1.21 ± 0.03 × 10^13 dm^3mol^−1s^−1
number of binding sites n ([3]; 308 K, BSA): 0.80 ± 0.02
Stern–Volmer constant Ksv ([3]; 308 K): 0.70 ± 0.06 × 10^5 dm^3mol^−1
logKb ([3]; 308 K): 3.72 ± 0.15
quenching rate constant kq ([3]; 308 K): 0.70 ± 0.06 × 10^13 dm^3mol^−1s^−1
ΔG° ([3]; BSA, from ΔH° − TΔS°): −23 ± 1 kJmol^−1
ΔH° [3, 4]: −54 ± 2 kJmol^−1
ΔS° [3, 4]: −106 ± 3 Jmol^−1K^−1

Source: paper PMC9918186, “Interaction of Positively Charged Oligopeptides with Blood Plasma Proteins” (International Journal of Molecular Sciences, 2023)
